In ChEMBL document CHEMBL1201862, “PubChem BioAssay data set” (2004):
Active and inactive are the calls of the source.

Assays:
[1] = P. falciparum late gametocyte killing, dose response, luminescence (AID 1117278); type: functional, cell-based;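 note: gametocytes exposed to compound for 24 hours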
[2] = Jurkat T cell cytotoxicity, dose response, cytotoxicity control for P. falciparum gametocyte viability project, luminescence (AID 1117277); type: functional, cell-based;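 note: potency reflects loss of cellular ATP meaning fewer viable cells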
HeLa = experiment: HeLa cell cytotoxicity, dose response, cytotoxicity control for MITF activator project, CellTiter-Glo luminescence, cherry-pick samples (AID 540259); type: functional, cell-based; details: Homo sapiens
[3] = inhibitors of firefly luciferase expression or activity, dose response, H4 neuroglioma cells, luminescence (AID 1990); type: functional, cell-based
[4] = Luminescence Cell-Based Dose Response HTS to Identify Inhibitors of 5'UTR Stem-Loop Driven Prion Protein mRNA Translation in H4 Neuroglioblastoma Cells. [Related pubchem assays: 1827 (Project Summary), 1813 (Primary HTS)]; type: functional
[5] = inhibitors of SNCA 5'UTR-driven reporter translation, confirmation, H4 neuroglioma cells, luminescence (AID 1988); type: functional, cell-based
[6] = cytotoxicity in HEK-293T cells, dose response, cytotoxicity control for BCR NF-kB inhibitor project, luminescence, B-cell screen hits (AID 489021); type: functional, cell-based;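 note: HEK-293T cells carrying an NF-kB luciferase reporter; cells exposed to compound for about 14 hours before viability readout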
H9c2 = experiment: cells; type: functional, cell-based; details: Rattus norvegicus, H9c2, Myocardium
[7] = inhibitors of PGC1a acetylation in cells, dose response, cell-based, cherry-picked samples (AID 720514); type: functional;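 note: potency may reflect raised or lowered acetylation signal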
[8] = THP-1 cell cytotoxicity, dose response, cytotoxicity control for Vif-APOBEC3G degradation inhibitor project, THP-1 cells (AID 1117359); type: functional; details: Human immunodeficiency virus 1, THP-1
[9] = inhibitors of Vif binding to APOBEC3G peptide, primary screen, biochemical, TR-FRET, GST-Vif 1-94, biotin-A3G peptide, dose response retest (AID 1117319); type: functional;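 note: TR-FRET signal of purified GST-Vif binding a biotinylated A3G peptide; inhibitors lower the FRET signal by blocking Vif and A3G binding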
[10] = growth suppression of PTEN-null colon cells, dose response, cell-based, HCT116 PTEN knockout (AID 1047); type: functional;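 note: HCT116 colon tumor cells with PTEN knocked out; cells exposed to compound for 60 hours before readout; potency for loss of cell viability measured by luminescence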
[11] = growth suppression of beta-catenin-knockout colon cells, dose response, cell-based, HCT116, human colon tumor (AID 1045); type: functional;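 note: HCT116 colon tumor cells with beta catenin knocked out; cells exposed to compound for 60 hours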
[12] = target: Heat shock protein HSP 90-alpha (Homo sapiens, UniProt P07900); experiment: Luminescence-based dose response biochemical high throughput screening assay for inhibitors of the Heat Shock Protein 90 (HSP90). [Related pubchem assays: 1831 (Summary AID.), 1846 (Confirmation screen.), 1789 (Primary screen.)]
BJ [13] = experiment: cytotoxicity toward BJ-TERT fibroblasts, dose response, cell-based, RAS-independent, luminescence (AID 1933); type: functional; details: Homo sapiens
BJ [14] = experiment: cells; type: functional, cell-based; details: Homo sapiens
BJ [15] = experiment: cytotoxicity toward BJ-TERT-LT-ST fibroblasts, dose response, cell-based, RAS-independent, luminescence (AID 1935); type: functional; details: Homo sapiens;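 note: BJ fibroblasts immortalized with TERT plus LT and ST oncogenes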
[16] = cytotoxicity toward DRD oncogenic fibroblasts, dose response, cell-based, non-viral oncogenic, luminescence (AID 1934); type: functional; details: Homo sapiens
[17] = Luminescence Cell-Based Dose Retest to Confirm Inhibitors of Cancer Stem Cells. [Related pubchem assays (depositor defined):AID2717, AID2721]; type: functional; details: Homo sapiens
[18] = target: Disintegrin and metalloproteinase domain-containing protein 17 (Homo sapiens, UniProt P78536); experiment: exosite inhibitors of ADAM17, dose response, biochemical (AID 743260)
Chain of Disintegrin and metalloproteinase domain-containing protein 17 (P78536 whole entry, the tested form may be a part): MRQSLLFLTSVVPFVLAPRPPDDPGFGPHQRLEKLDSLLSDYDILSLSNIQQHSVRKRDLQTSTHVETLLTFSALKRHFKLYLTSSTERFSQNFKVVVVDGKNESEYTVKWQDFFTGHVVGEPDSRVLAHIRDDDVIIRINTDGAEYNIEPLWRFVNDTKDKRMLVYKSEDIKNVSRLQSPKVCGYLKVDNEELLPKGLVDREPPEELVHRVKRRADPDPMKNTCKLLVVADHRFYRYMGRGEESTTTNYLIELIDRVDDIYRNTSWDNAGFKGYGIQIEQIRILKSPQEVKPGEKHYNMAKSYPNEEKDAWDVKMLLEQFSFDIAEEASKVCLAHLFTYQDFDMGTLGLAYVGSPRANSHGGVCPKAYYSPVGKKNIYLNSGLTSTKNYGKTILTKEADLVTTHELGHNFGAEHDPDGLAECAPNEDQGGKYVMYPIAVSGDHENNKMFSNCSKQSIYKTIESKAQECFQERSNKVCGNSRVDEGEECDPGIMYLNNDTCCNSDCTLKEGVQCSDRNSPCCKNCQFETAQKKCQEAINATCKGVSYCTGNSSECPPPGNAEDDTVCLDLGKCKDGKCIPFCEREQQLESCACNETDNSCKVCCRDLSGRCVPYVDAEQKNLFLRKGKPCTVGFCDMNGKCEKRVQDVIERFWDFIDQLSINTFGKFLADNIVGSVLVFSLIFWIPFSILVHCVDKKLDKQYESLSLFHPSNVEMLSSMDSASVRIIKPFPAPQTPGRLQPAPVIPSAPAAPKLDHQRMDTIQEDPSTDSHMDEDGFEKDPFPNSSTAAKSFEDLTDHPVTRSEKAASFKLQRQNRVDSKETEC

[19] = ADAM10 protease inhibitors, dose response, selectivity assay for ADAM17 exosite inhibitor project, biochemical, FRET peptide substrate, recombinant human ADAM10 (AID 743259);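 note: ADAM10 enzyme cleaving a FRET peptide substrate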

## O=S(=O)(Nc1ccncc1)c1ccccc1
[1]
  IC50: > 109 µM (inactive)
[2]
  IC50: > 83.3 µM (inactive)

## Cc1cccc2c1-c1sc(C(=O)N3CCCCC3)cc1CO2
HeLa
  AC50: > 350 µM (inactive)

## Cc1c(CCC(=O)NCCCn2ccnc2)c(=O)oc2c(C)c3oc4c(c3cc12)CCCC4
[3]
  EC50: 13.7 µM (active)
[4]
  EC50: 17.8 µM (active)
[5]
  EC50: 14.6 µM (active)
[6]
  IC50: 63.6 µM (inactive)

## Brc1ccc2nc(N3CCN(c4ccccc4)CC3)sc2c1
[1]
  IC50: > 109 µM (inactive)
[2]
  IC50: > 83.2 µM (inactive)

## CC(=O)Nc1ccc(Nc2nc(-c3sc(NC(C)=O)nc3C)cs2)cc1
[6]
  IC50: 20.6 µM (inactive)
H9c2
  IC50: > 79 µM (inactive)

## Cc1nc(Nc2ccc(S(N)(=O)=O)cc2)sc1C(=O)Nc1ccccc1
[7]
  AC50: 3.05 µM (active)
[8]
  CC50: > 40 µM (active)

## O=C(O)c1ccc(COc2c(F)c(F)c(F)c(F)c2F)o1
[9]
  IC50: > 100 µM (active)

## Clc1cccc(-c2cc3nc4c(c(N5CCNCC5)n3n2)CCCC4)c1
[10]
  EC50: 8.22 µM (active)
[11]
  EC50: 7.97 µM (active)

## COc1ccc(/C=C/c2noc(-c3ccccc3OC(C)=O)n2)cc1
[12]
  IC50: 3.29 µM (active)

## Cc1cc2c(C)cc(O)nc2cc1NC(=O)CCl
BJ [13]
  EC50: 17.7 µM (active)
BJ [14]
  EC50: > 150 µM (not active)
BJ [15]
  EC50: > 150 µM (not active)
[16]
  EC50: 42.2 µM (active)

## COc1ccc(CC(=O)OCC(=O)NCc2ccco2)cc1OC
[8]
  CC50: > 40 µM (active)
[9]
  IC50: > 100 µM (active)

## O=C(CCN1CCOCC1)NCC(=O)Nc1ccc(Br)cc1C(=O)c1ccccc1
[9]
  IC50: > 100 µM (active)

## CN(CCc1ccccc1)C(=O)c1ccc(NC(=O)Cc2ccc(NC(=O)C3CCN(C(=O)CCc4ccccc4)CC3)cc2)cc1
[8]
  CC50: > 40 µM (active)

## Cc1ccc(S(=O)(=O)N(CC(=O)N/N=C/c2cccc3c2OCCO3)c2ccccc2F)cc1
[9]
  IC50: > 100 µM (active)

## O=C(Nc1cccc(-c2csc(-c3ccccc3)n2)c1)c1cccs1
[17]
  AC50: 3.38 µM (active)
[18]
  IC50: > 69.5 µM (inactive)
[19]
  IC50: > 69.5 µM (inactive)
